Experimental findings from patent US20070092558A1, “Methods of Preparing Targeted Immunoliposomes” (priority 2005, published 2007) are described below.

For data set [1], the system named is MD-MBA 231 (breast cancer cells). The data set can be described thus: cytotoxicity assay (ATPlite luminescence), 1 h treatment then 72 h incubation. The note with it: MD-MBA 231 cells, 0-18 μg/ml [DOX], FIG. 3A.
Data set [2] concerns A431 (epidermoid cancer cells). As to conditions: 0-18 μg/ml [DOX], 1-hour treatment, 72-hour incubation, FIG. 3B.

Regarding `COc1cccc2c1C(=O)c1c(O)c3c(c(O)c1C2=O)C[C@@](O)(C(=O)CO)C[C@@H]3O[C@H]1C[C@H](N)[C@H](O)[C@H](C)O1` [free doxorubicin, doxorubicin], the “cytotoxicity (cell viability)” value in data set [1] and in data set [2] was “concentration effects on cell viability” each time.
